By IC50 is commonly meant the concentration needed to halve the response being measured.

Here are results for 27 compounds from patent publication US12673933B2, “Aminopyrazine compounds as HPK1 inhibitor and the use thereof” (BEIGENE, LTD., priority 2019, dated 2026).

This assay has as its target T1, HPK1 kinase (aa1-346, Life Technologies) (Homo sapiens, UniProt Q92918).
T1 construct: HPK1 kinase (aa1-346, Life Technologies); purchased Life Technologies
T1 sequence (Q92918 1-346): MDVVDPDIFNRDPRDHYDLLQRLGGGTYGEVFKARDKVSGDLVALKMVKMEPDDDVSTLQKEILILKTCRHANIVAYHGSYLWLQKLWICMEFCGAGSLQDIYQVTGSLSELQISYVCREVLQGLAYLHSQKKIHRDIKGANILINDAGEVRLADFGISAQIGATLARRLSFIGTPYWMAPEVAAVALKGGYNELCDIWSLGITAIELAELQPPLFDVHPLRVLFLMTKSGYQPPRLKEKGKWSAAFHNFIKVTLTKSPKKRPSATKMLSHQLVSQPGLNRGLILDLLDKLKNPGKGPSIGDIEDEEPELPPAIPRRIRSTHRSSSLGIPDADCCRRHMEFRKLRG
The assay is described as follows: HPK Kinase Activity Assay at 1 mM ATP (TR-FRET). It is filed as biochemical. The note with it: HPK1 kinase 40 nM, 0.5 μM STK1 substrate, read-out: Enzymatic activity IC50. The method, then: HPK Kinase Activity Assay at 1 mM ATP
Compounds disclosed herein were tested for inhibition of HPK1 kinase (aa1-346, Life Technologies) activity in assays based on the time-resolved fluorescence-resonance energy transfer (TR-FRET) methodology. The assays were carried out in 384-well low volume black plates in a reaction mixture containing HPK1 kinase (40 nM), 1 mM ATP, 0.5 μM STK1 substrate and 0-10 μM compound in buffer containing 50 mM HEPES, 0.01% BSA, 0.1 mM Orthovanadate, 10 mM MgCl2, 1 mM DTT, pH=7.0, 0.005% Tween-20. The kinase was incubated with the compounds disclosed herein or DMSO for 60 minutes at room temperature and the reaction was initiated by the addition of ATP and STK1 substrate. After reaction at room temperature for 120 minutes, an equal volume of stop/detection solution was added according to the manufacture's instruction (CisBio). The stop/detection solution contained STK Antibody-Cryptate and XL665-conjugated streptavidin in Detection Buffer. The TR-FRET signals (ratio of fluorescence emission at 665 nm over emission at 620 nm with excitation at 337 nm wavelength) were recorded on a PHERAstar FS plate reader (BMG Labtech). Phosphorylation of STK1 substrate led to the binding of STK Antibody-Cryptate to the biotinylated STK1 substrate, which places fluorescent donor (Eu^3+ crypate) in close proximity to the accepter (Streptavidin-XL665), thus resulting in a high degree of fluorescence resonance energy transfer. The inhibition of HPK1 in presence of increasing concentrations of compounds was calculated based on the ratio of fluorescence at 665 nm to that at 620 nm. The IC50 for each compound was derived from fitting the data to the four-parameter logistic equation by Graphpad Prism software.
A general note: In TR-FRET formats the signal depends on donor and acceptor labels being close together.
As to `Cc1cc(-c2cnc(N)c(OCc3c(Cl)cccc3Cl)n2)cc2c1CCN(C)C2` [Example 17, 3-((2,6-dichlorobenzyl)oxy)-5-(2,5-dimethyl-1,2,3,4-tetrahydroisoquinolin-7-yl)pyrazin-2-amine], the IC50 stood at 231 nM.

On to `Cc1cc(-c2cnc(N)c(OCc3ccccc3)n2)cc2c1CCN(C)C2` [Example 18, 3-(benzyloxy)-5-(2,5-dimethyl-1,2,3,4-tetrahydroisoquinolin-7-yl)pyrazin-2-amine], for which the IC50 turned out to be 73 nM. Then `Cc1cc(-c2cnc(N)c(OCc3ccnc(C#Cc4cccnc4)c3)n2)cc2c1CCN(C)C2` [Example 19, 5-(2,5-dimethyl-1,2,3,4-tetrahydroisoquinolin-7-yl)-3-((2-(pyridin-3-ylethynyl)pyridin-4-yl)methoxy)pyrazin-2-amine], with 98 nM; and `Cc1cc(-c2cnc(N)c(OCc3ccnc(C#Cc4ccc(F)cc4)c3)n2)cc2c1CCN(C)C2` [Example 20, 5-(2,5-dimethyl-1,2,3,4-tetrahydroisoquinolin-7-yl)-3-((2-((4-fluorophenyl)ethynyl)pyridin-4-yl)methoxy)pyrazin-2-amine], with 151 nM; and `Cc1cc(-c2cnc(N)c(OCc3ccncc3Cl)n2)cc2c1CCN(C)C2` [Example 21, 3-((3-chloropyridin-4-yl)methoxy)-5-(2,5-dimethyl-1,2,3,4-tetrahydroisoquinolin-7-yl)pyrazin-2-amine], with 35 nM. Then `Cc1cc(-c2cnc(N)c(OCc3ccnc4ccccc34)n2)cc2c1CCN(C)C2` [Example 22, 5-(2,5-dimethyl-1,2,3,4-tetrahydroisoquinolin-7-yl)-3-(quinolin-4-ylmethoxy)pyrazin-2-amine], with 38 nM. Consider `Cc1cc(-c2cnc(N)c(OCc3ccnc(C#Cc4ccncc4)c3)n2)cc2c1CCN(C)C2` [Example 23, 5-(2,5-dimethyl-1,2,3,4-tetrahydroisoquinolin-7-yl)-3-((2-(pyridin-4-ylethynyl)pyridin-4-yl)methoxy)pyrazin-2-amine], for which the IC50 amounted to 137 nM. As for `Cc1cc(-c2cnc(N)c(OCc3ccnc(C#CC(C)(C)C)c3)n2)cc2c1CCN(C)C2` [Example 24, 5-(2,5-dimethyl-1,2,3,4-tetrahydroisoquinolin-7-yl)-3-((2-(3,3-dimethylbut-1-yn-1-yl)pyridin-4-yl)methoxy)pyrazin-2-amine], the figure is 61 nM. Then `CC#Cc1cc(COc2nc(-c3cc(C)c4c(c3)CN(C)CC4)cnc2N)ccn1` [Example 25, 5-(2,5-dimethyl-1,2,3,4-tetrahydroisoquinolin-7-yl)-3-((2-(prop-1-ynyl)pyridin-4-yl)methoxy)pyrazin-2-amine], with 13 nM; and `Cc1cc(-c2cnc(N)c(OC3CCCc4cnccc43)n2)cc2c1CCN(C)C2` (stereo not drawn) [Example 26, 5-(2,5-dimethyl-1,2,3,4-tetrahydroisoquinolin-7-yl)-3-(5,6,7,8-tetrahydroisoquinolin-5-yloxy)pyrazin-2-amine], with 113 nM; and `Cc1cc(-c2cnc(N)c(OCc3ccnc(N)c3C)n2)cc2c1CCN(C)C2` [Example 29, 3-((2-amino-3-methylpyridin-4-yl)methoxy)-5-(2,5-dimethyl-1,2,3,4-tetrahydroisoquinolin-7-yl)pyrazin-2-amine], with 16 nM.

As to `Cc1cc(-c2cnc(N)c(OCc3ccncc3OC(C)C)n2)cc2c1CCN(C)C2` [Example 30, 5-(2,5-dimethyl-1,2,3,4-tetrahydroisoquinolin-7-yl)-3-((3-isopropoxypyridin-4-yl)methoxy)pyrazin-2-amine], the IC50 was determined as 7.6 nM. In the case of `Cc1cc(-c2cnc(N)c(OCc3ccnc(N)c3)n2)cc2c1CN(C)CC2` [Example 31, 3-((2-aminopyridin-4-yl)methoxy)-5-(2,8-dimethyl-1,2,3,4-tetrahydroisoquinolin-6-yl)pyrazin-2-amine], the IC50 came out at 25 nM. Take `Cc1cnc(N)cc1COc1nc(-c2cc(C)c3c(c2)CN(C)CC3)cnc1N` [Example 32, 3-((2-amino-5-methylpyridin-4-yl)methoxy)-5-(2,5-dimethyl-1,2,3,4-tetrahydroisoquinolin-7-yl)pyrazin-2-amine]: the IC50 was 5.1 nM. For the compound `Cc1cc(-c2cnc(N)c(OCc3ccncc3OCc3ccccc3)n2)cc2c1CCN(C)C2` [Example 33, 3-((3-(benzyloxy)pyridin-4-yl)methoxy)-5-(2,5-dimethyl-1,2,3,4-tetrahydroisoquinolin-7-yl)pyrazin-2-amine], the IC50 was 8.2 nM. Turning to `Cc1cc(-c2cnc(N)c(OCc3ccnc4[nH]ccc34)n2)cc2c1CCN(C)C2` [Example 34, 3-((1H-pyrrolo[2,3-b]pyridin-4-yl)methoxy)-5-(2,5-dimethyl-1,2,3,4-tetrahydroisoquinolin-7-yl)pyrazin-2-amine], the 50% inhibitory concentration (IC50) amounted to 12 nM.

Consider `COc1c(COc2nc(-c3cc(C)c4c(c3)CN(C)CC4)cnc2N)ccnc1N` [Example 35, 3-((2-amino-3-methoxypyridin-4-yl)methoxy)-5-(2,5-dimethyl-1,2,3,4-tetrahydroisoquinolin-7-yl)pyrazin-2-amine], for which the IC50 worked out at 16 nM. As for `Cc1cc(-c2cnc(N)c(-c3cn[nH]c3)n2)cc2c1CCN(C)C2` [Example 36, 5-(2,5-dimethyl-1,2,3,4-tetrahydroisoquinolin-7-yl)-3-(1H-pyrazol-4-yl)pyrazin-2-amine], the figure is 93 nM; as for `Cc1cc(-c2cnc(N)c(OCc3ccnc(NCC4CC4)c3)n2)cc2c1CCN(C)C2` [Example 38, 3-((2-((cyclopropylmethyl)amino)pyridin-4-yl)methoxy)-5-(2,5-dimethyl-1,2,3,4-tetrahydroisoquinolin-7-yl)pyrazin-2-amine], 57 nM; as for `CC(=O)Nc1cc(COc2nc(-c3cc(C)c4c(c3)CN(C)CC4)cnc2N)ccn1` [Example 39, N-(4-(((3-amino-6-(2,5-dimethyl-1,2,3,4-tetrahydroisoquinolin-7-yl)pyrazin-2-yl)oxy)methyl)pyridin-2-yl)acetamide], 85 nM. Then `CCNc1cc(COc2nc(-c3cc(C)c4c(c3)CN(C)CC4)cnc2N)ccn1` [Example 40, 5-(2,5-dimethyl-1,2,3,4-tetrahydroisoquinolin-7-yl)-3-((2-(ethylamino)pyridin-4-yl)methoxy)pyrazin-2-amine], with 29 nM; and `CCOc1c(COc2nc(-c3cc(C)c4c(c3)CN(C)CC4)cnc2N)ccnc1N` [Example 41, 3-((2-amino-3-ethoxypyridin-4-yl)methoxy)-5-(2,5-dimethyl-1,2,3,4-tetrahydroisoquinolin-7-yl)pyrazin-2-amine], with 8.9 nM; and `Cc1cc(-c2cnc(N)c(OCc3ccncc3Oc3ccccc3)n2)cc2c1CCN(C)C2` [Example 42, 5-(2,5-dimethyl-1,2,3,4-tetrahydroisoquinolin-7-yl)-3-((3-phenoxypyridin-4-yl)methoxy)pyrazin-2-amine], with 94 nM.

As for `Cc1cc(-c2cnc(N)c(OCc3cc[nH]n3)n2)cc2c1CCN(C)C2` [Example 43, 3-((1H-pyrazol-3-yl)methoxy)-5-(2,5-dimethyl-1,2,3,4-tetrahydroisoquinolin-7-yl)pyrazin-2-amine], the IC50 was 56 nM. Then `Cc1cc(-c2cnc(N)c(OCc3ccnc4[nH]cnc34)n2)cc2c1CCN(C)C2` [Example 44, 3-((3H-imidazo[4,5-b]pyridin-7-yl)methoxy)-5-(2,5-dimethyl-1,2,3,4-tetrahydroisoquinolin-7-yl)pyrazin-2-amine and 3-((1H-imidazo[4,5-b]pyridin-7-yl)methoxy)-5-(2,5-dimethyl-1,2,3,4-tetrahydroisoquinolin-7-yl)pyrazin-2-amine], with 19 nM. As for `CCn1cc(Oc2nc(-c3cc(C)c4c(c3)CN(C)CC4)cnc2N)cn1` [Example 45, 5-(2,5-dimethyl-1,2,3,4-tetrahydroisoquinolin-7-yl)-3-(1-ethyl-1H-pyrazol-4-yloxy)pyrazin-2-amine], the figure is 15 nM; as for `Cc1cc(-c2cnc(N)c(-n3cc(C(=O)N(C)C)cn3)n2)cc2c1CCN(C)C2` [Example 46, 1-(3-amino-6-(2,5-dimethyl-1,2,3,4-tetrahydroisoquinolin-7-yl)pyrazin-2-yl)-N,N-dimethyl-1H-pyrazole-4-carboxamide], 21 nM.
